Laboratory results reported in patent US5359075A, “Quinophthalone compound” (Mitsui Toatsu Chemicals, Incorporated, priority 1991, dated 1994).

Tests used:
[1] = maximum absorption wavelength; assay type: physicochemical; settings: for λmax: solvent not given
[2] = Dichroic ratio / liquid crystal display element in liquid crystal mixture E-8; settings: liquid crystal E-8
Procedure: Each of the dyestuffs of Examples 12 and 13 was added to 9.8 parts of a liquid crystal mixture of a trade name E-8 made by Merck AG, and the mixture was then heated up to about 60° C. to completely dissolve the dyestuff. After cooling, the solution was poured into a liquid crystal display element, and it was then hermetically sealed.
Each sample was put on a light path of a spectrophotometer, and an absorbance A was measured by applying straight polarized light to the liquid crystal in parallel with the arrangement of the liquid crystal and an absorbance A' was measured by applying straight polarized light to the liquid crystal at a right angle to the arrangement of the liquid crystal. By the use of the thus measured absorbances A and A', a dichroic ratio was calculated in accordance with the following formula: […]
Furthermore, as comparative preparation examples, otherwise the same liquid crystals as mentioned above were prepared from compounds for comparison represented by the following formulae (K) and (L).

[3] = solubility of each compound in a solvent; assay type: physicochemical; settings: at 20° C., % on weight
Procedure: For the six compounds (B) to (H) of Examples 1 to 6 and the compounds (I) and (J) for comparison, the solubility of each compound in a solvent was measured.

[4] = Resin coloring suitability test: heat resistance; assay type: physicochemical; settings: 0.02 pts. wt., 300° C./10 min.; for Heat resistance (H), ABS: Acrylonitrile/butadiene/styrene; for Heat resistance (H), PC: Polycarbonate; for Heat resistance (H), PET: Polyethylene glycol terephthalate; for Heat resistance (H), PS: Polystyrene
Procedure: For the compounds (B, C, D, F, G and H), a resin coloring suitability test was conducted.
H: Heat resistance, 300° C./10 min., Gray scale judgement
Heat resistance and bleed resistance: […]
judgement, and the fifth grade or more was denoted by .circleincircle. an
the third to fifth grades by .largecircle..

| Structure (SMILES) | λmax ([1]; Table 1) | Solubility in Acetone [3] | Solubility in DMF [3] | Solubility in THF [3] | Solubility in Toluene [3] | λmax ([1]; Table 5) | also measured |
| --- | --- | --- | --- | --- | --- | --- | --- |
| CCCCNC(=O)c1ccc2c(c1)C(=O)C(c1nc3ccc(C(C)C)cc3cc1O)C2=O (stereo not drawn) [Example 7] | 450 nm |  |  |  |  |  |  |
| CC(C)c1ccc2nc(C3C(=O)c4ccccc4C3=O)c(O)cc2c1 [D] |  | 1.58% | 3.56% | 2.28% | 1.79% |  | maximum absorption wavelength in toluene [1]: 450 nm; Heat resistance (H), ABS [4]: .largecircle. (the third to fifth grades); Heat resistance (H), PC [4]: .circleincircle. (the fifth grade or more); Heat resistance (H), PET [4]: .largecircle. (the third to fifth grades); Heat resistance (H), PS [4]: .circleincircle. (the fifth grade or more) |
| CCCN(CCC)C(=O)c1ccc2c(c1)C(=O)C(c1nc3ccc(C(C)C)cc3cc1O)C2=O (stereo not drawn) [Example 11] | 450 nm |  |  |  |  |  |  |
| CCCCOC(=O)c1ccc2c(c1)C(=O)C(c1nc3ccc(C)cc3cc1O)C2=O (stereo not drawn) [J, reference compound] |  | 0.13% | 0.78% | 0.34% | 0.28% |  | dissolution in the liquid crystal [2]: not completely dissolved |
| CC(=O)OCC1(COC(C)=O)COC(c2ccc3c(c2)C(=O)C(c2nc4ccc(C(C)C)cc4cc2O)C3=O)=N1 (stereo not drawn) [Example 21] |  |  |  |  |  | 450 nm |  |
| CCC1(COC(=O)C(C)C)COC(c2ccc3c(c2)C(=O)C(c2nc4ccc(C5CCCCC5)cc4cc2O)C3=O)=N1 (stereo not drawn) [Example 19] |  |  |  |  |  | 450 nm |  |
| CCCCN(CCCC)C(=O)c1ccc2c(c1)C(=O)C(c1nc3ccc(C(C)C)cc3cc1O)C2=O (stereo not drawn) [F] |  | 7.10% | 13.49% | 12.63% | 10.52% |  | maximum absorption wavelength in toluene [1]: 450 nm; Heat resistance (H), ABS [4]: .largecircle. (the third to fifth grades); Heat resistance (H), PC [4]: .circleincircle. (the fifth grade or more); Heat resistance (H), PET [4]: .circleincircle. (the fifth grade or more); Heat resistance (H), PS [4]: .circleincircle. (the fifth grade or more) |
| CCC1(CO)COC(c2ccc3c(c2)C(=O)C(c2nc4ccc(C(C)C)cc4cc2O)C3=O)=N1 (stereo not drawn) [G] |  | 3.84% | 6.91% | 6.50% | 4.01% |  | maximum absorption wavelength in toluene [1]: 450 nm; Heat resistance (H), ABS [4]: .largecircle. (the third to fifth grades); Heat resistance (H), PC [4]: .circleincircle. (the fifth grade or more); Heat resistance (H), PET [4]: .circleincircle. (the fifth grade or more); Heat resistance (H), PS [4]: .circleincircle. (the fifth grade or more) |
| CC(C)NC(=O)c1cc2c(cc1C(=O)NC(C)C)C(=O)C(c1nc3ccc(C(C)C)cc3cc1O)C2=O [Example 8] | 460 nm |  |  |  |  |  |  |
| CC(C)c1ccc2nc(C3C(=O)c4ccc(-c5nnc(C(C)C)s5)cc4C3=O)c(O)cc2c1 (stereo not drawn) [Example 15] |  |  |  |  |  | 450 nm |  |
| Cc1ccc2oc(-c3ccc(-c4ccc(N5C(=O)c6cc7c(cc6C5=O)C(=O)C(c5nc6ccc(C(C)C)cc6cc5O)C7=O)cc4)cc3)nc2c1 [Example 13] | 455 nm |  |  |  |  |  |  |
| CCC1(COC(=O)C(C)C)COC(c2ccc3c(c2)C(=O)C(c2nc4ccc(C(C)C)cc4cc2O)C3=O)=N1 (stereo not drawn) [H] |  | 5.31% | 12.64% | 10.38% | 8.85% |  | maximum absorption wavelength in toluene [1]: 450 nm; Heat resistance (H), ABS [4]: .largecircle. (the third to fifth grades); Heat resistance (H), PC [4]: .circleincircle. (the fifth grade or more); Heat resistance (H), PET [4]: .circleincircle. (the fifth grade or more); Heat resistance (H), PS [4]: .circleincircle. (the fifth grade or more) |
| CC(=O)OCC1(COC(C)=O)COC(c2ccc3c(c2)C(=O)C(c2nc4ccccc4cc2O)C3=O)=N1 (stereo not drawn) [Example 16] |  |  |  |  |  | 450 nm |  |
| CCC1(COC(C)=O)COC(c2ccc3c(c2)C(=O)C(c2nc4ccc(C(C)C)cc4cc2O)C3=O)=N1 (stereo not drawn) [Example 20] |  |  |  |  |  | 450 nm |  |

Now from value to compound, other results behind:

| λmax ([1]; Table 1) | Solubility in Acetone [3] | Solubility in DMF [3] | Solubility in THF [3] | Solubility in Toluene [3] | λmax ([1]; Table 5) | Structure (SMILES) | also measured |
| --- | --- | --- | --- | --- | --- | --- | --- |
| 450 nm |  |  |  |  |  | CCCCCCNC(=O)c1ccc2c(c1)C(=O)C(c1nc3ccc(C(C)C)cc3c(Br)c1O)C2=O (stereo not drawn) [Example 9] |  |
|  | 0.33% | 1.20% | 0.98% | 0.51% |  | CCCCCCCCOC(=O)c1ccc2c(c1)C(=O)C(c1nc3ccc(CCCC)cc3cc1O)C2=O (stereo not drawn) [I, reference compound] | dissolution in the liquid crystal [2]: not completely dissolved |
|  |  |  |  |  | 450 nm | CCCCCCCCN1CCN=C1c1ccc2c(c1)C(=O)C(c1nc3ccccc3c(Sc3ccc(C(C)(C)C)cc3)c1O)C2=O (stereo not drawn) [Example 14] |  |
|  |  |  |  |  | 450 nm | CCCCCCC1(CC)COC(c2ccc3c(c2)C(=O)C(c2nc4ccccc4cc2O)C3=O)=N1 (stereo not drawn) [Example 17] |  |
|  | 3.95% | 7.03% | 6.55% | 4.22% |  | CC(C)c1nnc(-c2ccc3c(c2)C(=O)C(c2nc4ccccc4cc2O)C3=O)o1 (stereo not drawn) [C] | maximum absorption wavelength in toluene [1]: 450 nm; Heat resistance (H), ABS [4]: .largecircle. (the third to fifth grades); Heat resistance (H), PC [4]: .circleincircle. (the fifth grade or more); Heat resistance (H), PET [4]: .largecircle. (the third to fifth grades); Heat resistance (H), PS [4]: .circleincircle. (the fifth grade or more) |
| 450 nm |  |  |  |  |  | CCCCSc1c(O)c(C2C(=O)c3ccccc3C2=O)nc2ccc(C(C)C)cc12 [Example 10] |  |
|  | 3.48% | 6.91% | 6.50% | 3.98% |  | CC1CN=C(c2ccc3c(c2)C(=O)C(c2nc4ccccc4cc2O)C3=O)O1 (stereo not drawn) [B] | maximum absorption wavelength in toluene [1]: 448 nm; Heat resistance (H), ABS [4]: .largecircle. (the third to fifth grades); Heat resistance (H), PC [4]: .circleincircle. (the fifth grade or more); Heat resistance (H), PET [4]: .largecircle. (the third to fifth grades); Heat resistance (H), PS [4]: .circleincircle. (the fifth grade or more) |
| 455 nm |  |  |  |  |  | CCCCCCCCOc1ccc(-c2ccc(N3C(=O)c4cc5c(cc4C3=O)C(=O)C(c3nc4ccc(C(C)C)cc4cc3O)C5=O)cc2)cc1 [Example 12] |  |
